From patent US20110021471A1, “REDUCING Abeta42 LEVELS AND Abeta AGGREGATION” (priority 2007, published 2011)
Read-outs that look alike come from different tables or passages of the source.

How the values were obtained:
human H4 cells = assay: Steroid compounds, Aβ42 levels in human H4 cells (FIG. 2, FIG. 21); type: cell-based
Description: FIG. 21 contains the results of an in vitro assay, studying the effects of various steroid compounds on Aβ42 levels in human H4 cells. Chemical names and molecular weights of each steroid are presented.
Agents having the ability to modulate Aβ42 levels were identified as follows. […] It was hypothesized that it might be possible to convert Aβ42 increasing agents into Aβ42 reducing agents by incorporating an acidic group into the core structure. For steroids, multiple steroids containing an acidic group were obtained from Steraloids Inc. and screened for the ability to reduce Aβ42 levels.

APP-NOTCH TMD cells = assay: Aβ modulation in APP-NOTCH TMD cells; type: cell-based, human; set-up: Aβ42 signal (percentage of control) / Aβ40 signal (percentage of control): dose or concentration left out as unconfirmed
Experimental: (§1) (A) and (B) The sequences of wildtype (WT; A) APP and the mutated substrate (B) containing the homologous region (italic, underlined) of the NOTCH transmembrane domain (TMD) in APP where GSMs are hypothesized to bind. […] Bottom row, FT-1 ([…]) raised Aβ42 200% in APP wild-type cells (A); however, in APP-NOTCH TMD cells (B), FT-1 caused minimal changes in the Aβ42 (95%) or Aβ40 (90%) signal. Data are presented as amyloid-β percentage of control±s.e.m., n=3.
(§2) FIG. 19. Substitution of human Notch sequence in the APP transmembrane domain (TMD) changes sensitivity to modulation. (A) Site-directed mutagenesis was used to exchange the analogous region of the human Notch TMD (bold and underlined) for a section (bold and underlined) of wild-type APP (APPwt) we have shown to be labeled by GSMs. The new substrate (APP-Notch TMD) is cleaved by γ-secretase primarily after valine and alanine residues corresponding to 40 and 42 in APPwt (arrows). […] The beginning (1) N-terminal amino acid (AA) to the ending C-terminal AA is shown above each peak, with the molecular weight (m/z) below. 1-40 and 1-42 are detected as the two major species in APP-Notch TMD conditioned media. It should be noted that the mutagenesis strategy to create APPNotch TMD led to a single AA deletion relative to APPwt. The correct change in molecular weight caused by the introduced mutations were confirmed by the mass spectrum. For simplicity the peptides are referenced by their C-terminal residues relative to Aβ (40, 42, etc). Representative mass spectra are shown from multiple IP reactions (3) and duplicate spots. […] Both cell lines were treated (6 hours) with L-685,458 (10 μM), which is hypothesized to target the active site aspartate residues, media was collected, and analyzed for changes in Aβ levels. The 40 and 42 Aβ reactive species from both cell lines were inhibited by L-685,458 with equal sensitivity (no significant difference; 40 p>0.5; 42 p>0.4; t test; n=3).
To test the hypothesis that mutation of the GSM binding site in APP should alter sensitivity to GSMs, a portion of the GSM binding site in APP was exchanged with the analogous region of human NOTCH (FIGS. 18A and 18B; FIG. 19). The chimeric construct was used because the NOTCH transmembrane domain (TMD) appears resistant to GSM effects. The APP NOTCH TMD construct produced a spectrum of chimeric amyloid-β species in conditioned cell media (FIG. 19). Although the molecular weight and abundance of each chimeric peptide differed from amyloid-β peptides from APP, the main species produced from the APP-NOTCH TMD construct had identical C-termini to Ab1-40 and Ab1-42, and could be quantified by enzyme-linked immunosorbent assays (ELISAs; FIG. 19). The relative sensitivity to GSMs of APP-NOTCH TMD versus APP was assayed in stably transfected cells. […]

APP wild-type cells = assay: Aβ modulation in APP wild-type cells; type: cell-based; set-up: Aβ42 raised: dose or concentration left out as unconfirmed
Experimental: as §1
as §2, with “APPwt.” for “APPwt. The correct change in molecular weight caused by the introduced mutations were confirmed by the mass spectrum. For simplicity the peptides are referenced by their C-terminal residues relative to Aβ (40, 42, etc). Representative mass spectra are shown from multiple IP reactions (3) and duplicate spots.”, “The 40 and 42 Aβ reactive species from both cell lines were inhibited by L-685,458 with equal sensitivity (no significant difference; 40 p>0.5; 42 p>0.4; t test; n=3).” left out
To test the hypothesis that mutation of the GSM binding site in APP should alter sensitivity to GSMs, a portion of the GSM binding site in APP was exchanged with the analogous region of human NOTCH (FIGS. 18A and 18B; FIG. 19). […] Although the molecular weight and abundance of each chimeric peptide differed from amyloid-β peptides from APP, the main species produced from the APP-NOTCH TMD construct had identical C-termini to Ab1-40 and Ab1-42, and could be quantified by enzyme-linked immunosorbent assays (ELISAs; FIG. 19). […]

[1] = test system: 7PA2 cells (CHO cells stably expressing human APP751 V717F); assay: 7PA2 cells: Aβ oligomers (IP/western) and Aβ ELISA; type: cell-based, Chinese hamster; details: for naturally secreted oligomer formation: 50 μM, IP Western blotting; for Aβ42 production in 7PA2 cells / dimeric and trimeric Aβ species: FT-9 and FT-1 20 μM, fenofibrate 100 μM, ~16 hours
Experimental: FIG. 17. γ-secretase modulators decrease the production of cell derived Aβ oligomers. CHO cells stably expressing human APP751 containing the familial Alzheimer's disease mutation V717F (referred to as 7PA2 cells) were incubated for ˜16 hours in the presence of GSMs. […] Aβ40 levels were decreased to varying degrees (26-35%; Li-Cor Odyssey). (B) and (C) Because the extended incubation times necessary to reliably detect Aβ oligomers in this assay can be toxic, we carried out additional dose response studies with fenofibrate and FT-9 to verify that decreases in Aβ oligomers levels were not related to toxicity or global inhibition of Aβ production. […] (C) Increasing doses of FT-9 reduced the detection of Aβ oligomeric bands and Aβ42 decreased preferentially with decreases in Aβ40 at higher doses. […] Aβ species present in conditioned medium were detected by IP using the polyclonal anti-Aβ antibody, DW6 and subsequent immunoblotting with either 6E10 or the 42-specific, anti-Aβ antibody 21F12. Aβ levels in the samples analyzed via IP/western were also quantified via sandwich ELISA. Data presented as percent vehicle control±s.e.m., n=2.
To address the question of whether GSMs influence the concentration of secreted amyloid-β oligomers, such as those released by Chinese hamster ovary (CHO) cells expressing the APP V717F mutation (referred to as 7PA2 cells), which alter long-term potentiation and perturb the memory of learned behavior when injected into rat brain, 7PA2 cells were treated with two Aβ42-raising GSMs and a novel Aβ42-lowering GSM (FIG. 17) (Walsh et al., Nature 416:535:539 (2002); Calabrese et al., Mol. Cell. Neurosci. 35:183-193 (2007)). Fenofibrate and FT-1 increased amounts of Aβ42 whereas FT-9 lowered Aβ42, but all three GSMs decreased amounts of amyloid-β dimers and trimers. […] In contrast to increased amyloid-β oligomer formation, when CHO cells are genetically manipulated to increase Aβ42 production by co-expression of APP and FAD-linked mutant PSEN1 proteins, both Aβ42-lowering and -raising GSMs decreased oligomer formation (Xia et al., J. Biol. Chem. 272: 7977-7982 (1997)).

Tg2576 mice = assay: Acute oral dosing of Tg2576 mice, brain soluble Aβ after 4 hours; type: in vivo, mouse
Experimental: (§3) FIG. 2. Aβ modulating agents can inhibit Aβ aggregation, and agents that bind Aβ amyloid can modulate Aβ42 production. […] (C) Aβ42 modulating agents inhibit naturally secreted oligomer formation. 7PA2 cells were treated with fenofibrate, FT-1, or FT-9 at 50 μM and oligomers assessed by IP Western blotting. […] (D) FT-9, an Aβ42 reducing agent, can inhibit Aβ42 aggregation in vitro.
FIG. 13. Compounds that bind Aβ are GSMs in vitro and in vivo. (A) A cell-based screen of Aβ-binders identified molecules that increase Aβ42 (DAPH) or decrease Aβ42 (Bis-ANS, X-34 or chrysamine G (CG)). Data are mean±s.e.m., n=3. (B) X-34 is an Aβ42-lowering GSM. Changes in amyloid-β peptide amounts after X-34 treatment are shown. Data are presented as percentage control±s.e.m., n=3. EC50 values were calculated. […] NA, not applicable. (C) X-34 binds to APP(C100)-Flag and decreases labeling by GSM photoprobes. Biotin incorporation into APP by Fen-B and Flurbi-BpB is presented as percentage of control (peptide without X-34)±s.e.m., n=2. (D) X-34 lowers Aβ42 in Tg2576 mice after 4 h. […] Data are presented as amyloid-β percentage of control relative to vehicle±s.e.m. Animals per group (n). Asterisk, P,0.05; two asterisks, P,0.01; ANOVA with Dunnett's post-hoc analysis.
Finally, X-34 was tested for its ability to modulate Aβ42 amounts in an APP transgenic mouse (Tg2576).

Aβ42 = Aβ42 (Homo sapiens, UniProt P05067); assay: Aβ42 aggregation in vitro (native gel electrophoresis); type: biochemical; details: 1 μM, 37° C.
Experimental: as §3

H4Bri-C99 (CTF-3) = details: 6 hours
Experimental: FIG. 6. […] Parent GSMs and biotin tagged photoactivatable GSMs were evaluated for their effects on Aβ secreted from H4Bri-C99 (CTF-3). Cells were treated with compounds for 6 hours and Aβ measured by ELISA. […] Changes in Aβ (percent control)±s.e.m., n=3.
Photoaffinity labelling. All experiments used the following general protocol. Samples (recombinant or synthetic peptides, cell lysates and membrane preparations) were exposed in borosilicate test tubes to ultraviolet light (350 nm) in a Rayonet Photoreactor R100 (RPR-3500 lamps, Southern New England Ultra Violet Company) in a cold room (4° C.) for 30 minutes or as otherwise noted. Crosslinked samples were analyzed by ELISA for biotin incorporation, or analyzed directly by SDS-PAGE (Criterion-XT, Bio-Rad), or after precipitation with streptavidin ultralink plus beads (Pierce). After immunblotting, proteins were detected using chemiluminesence (ECL Plus, GEHealthcare) or near-infrared fluorescence (LiCor Odyssey). Full-length APP and APP CTFs (CTF83, CTF99) were detected with CT20, a rabbit polyclonal antibody against the C-terminus of APP. Biotin was detected with an affinity-purified rabbit polyclonal antibody (Bethyl). Cell-based screens for amyloid-β modulation. Human H4 neuroglioma cells (American Type Culture Collection, ATCC) expressing wild-type APP695 protein or CTF105 fused to secreted alkaline phosphatase which is efficiently processed to APP CTFs (CTF83, CTF99) and produce high levels of amyloid-β, were used for the cell-based screens as previously described. Cells were incubated for 5-6 hours in the presence of the various compounds in Opti-Mem culture medium containing 1% fetal bovine serum. Compounds were dissolved in dimethylsulphoxide (DMSO; 0.5% final concentration) and diluted 200-fold. Media was analyzed for various amyloid-β species (40, 42 and total) using ELISAs as described herein. The EC50 values for changes in amyloid-β species were calculated by fitting sigmoid dose-response curves using nonlinear regression in Prism (GraphPad) and are shown as values±s.e.m. Statistical analysis. Data are presented as either percentage control or mean±s.e.m. Results were analyzed using Prism (Graph Pad) with t-tests or one-way analysis of variance analyses (ANOVAs) with Dunnett's post-hoc correction for comparison of multiple samples to a control. Statistical significance is shown as P,0.05 (one asterisk), P,0.01 (two asterisks) or P,0.001 (three asterisks).

Chain of Aβ42 (P05067 672-713 limits assumed): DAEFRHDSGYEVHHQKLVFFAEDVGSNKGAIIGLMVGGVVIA

C[C@H](CCC(=O)O)[C@H]1CC[C@H]2[C@@H]3[C@H](O)C[C@@H]4C[C@H](O)CC[C@]4(C)[C@H]3CC[C@]12C [5β cholanic acid 3a, 7a diol]
Aβ42 levels (acidic steroids) (human H4 cells): does not

CC(C#N)c1ccc([N+](=O)[O-])c(Oc2cc(Cl)cc(Cl)c2)c1 (stereo not drawn) [FT-1, 2-(3-(3,5-dichlorophenoxy)-4-nitrophenyl)propanenitrile]
Aβ40 signal (percentage of control) (APP-NOTCH TMD cells; APP-NOTCH TMD cells): 90% | Aβ42 signal (percentage of control) (APP-NOTCH TMD cells; APP-NOTCH TMD cells): 95% | Aβ42 raised (APP wild-type cells; APP wild-type cells): 200% | naturally secreted oligomer formation [1]: inhibit oligomer formation | Aβ42 production in 7PA2 cells [1]: increase production of Aβ42 | dimeric and trimeric Aβ species [1]: reduce production of dimeric and trimeric Aβ species

C[C@H](NC(=O)[C@@H](O)c1cc(F)cc(F)c1)C(=O)N[C@@H]1C(=O)N(C)c2ccccc2-c2ccccc21 [LY-411575]
selectivity of Aβ reduction (Aβ42 vs Aβ40) (Tg2576 mice; Tg2576, oral gavage, 4 hours): reduces Aβ40 preferentially

C[C@H](CCC(=O)O)[C@H]1CC[C@H]2[C@@H]3CC[C@@H]4CCCC[C@]4(C)[C@H]3CC[C@]12C [5β-cholanic acid]
Aβ42 levels (acidic steroids) (human H4 cells): one of the more potent Aβ42 reducing agents | Aβ42 levels (acidic steroids) (human H4 cells; listed as 5-β-cholanic acid): most potent Aβ42 lowering GSM | Aβ42 levels (acidic steroids) (human H4 cells; listed as 5β-Cholanic acid): potently reduces Aβ42

CC(C)C[C@H](NC(=O)[C@H](Cc1ccccc1)C[C@@H](O)[C@H](Cc1ccccc1)NC(=O)OC(C)(C)C)C(=O)N[C@@H](Cc1ccccc1)C(N)=O [L-685,458]
40 and 42 Aβ reactive species (APP-NOTCH TMD cells; 10 μM, 6 hours, APP-Notch TMD): inhibited | 40 and 42 Aβ reactive species (APP wild-type cells; 10 μM, 6 hours, APPwt): inhibited

CC(C(=O)O)c1cccc(Oc2cc(Cl)cc(Cl)c2)c1 (stereo not drawn) [FT-9, 2-(3-(3,5-dichlorophenoxy)phenyl)propanoic acid]
total Aβ (ELISA) in dose response studies [1]: did not decrease | naturally secreted oligomer formation [1]: inhibit oligomer formation | Aβ42 production in 7PA2 cells [1]: lowers Aβ42 | dimeric and trimeric Aβ species [1]: reduce production of dimeric and trimeric Aβ species | Aβ42 aggregation in vitro (Aβ42): inhibits Aβ42 aggregation

C[C@@H](C(=O)O)c1ccc(-c2ccccc2)c(F)c1 [Tarenflurbil]
lowering of Aβ42 in the brains (Tg2576 mice; 50 mg kg21, Tg2576 mice, 4 h): 25% | Aβ42 (direction of change) (H4Bri-C99 (CTF-3)): lowered Aβ42 | total Aβ levels (H4Bri-C99 (CTF-3)): without decreasing total Aβ levels
